Reference: patent US20190083497A1, “MODULATION OF BLOOD BRAIN BARRIER PERMEABILITY” (Cornell University, priority 2008, published 2019)

What was measured:
blood brain barrier = test: FITC-Dextran extravasation through the brain endothelium; assay type: in vivo, mouse; settings: 30 minutes after IP FITC Dextran
Procedure: In order to examine the effects of caffeine, a general adenosine receptor antagonist, on blood brain barrier permeability, mice were fed caffeine for several days and then injected with FITC Dextran, commonly used to assess endothelial permeability.
More particularly, mice were fed 0.6 g/l caffeine (Sigma, St. Louis, Mo.) in water or regular water ad lib for five days. Mice were injected IP with FITC Dextran (10,000 MW, Molecular Probes, Eugene, Oreg.) and after 30 minutes mice were perfused with ice cold PBS via the left ventricle. Brains were removed and snap frozen in OCT (Tissue Tek, Torrance, Calif.) and stored at −80° C. until sectioning. Tissue sections (5 μm) were stained with hematoxylin for light microscopy and with DAPI for a fluorescent counterstain.

EAE-induced mice = test: EAE induction and scoring (MOG35-55/CFA + pertussis toxin); assay type: in vivo, mouse
Procedure: C57BL/6 and tcrα^−/− mice on the C57BL/6 background were purchased from The Jackson Laboratories. Mice were bred and housed under specific pathogen-free conditions at Cornell University or the University of Turku. For adenosine receptor blockade experiments, mice were given drinking water supplemented with 0.6 g/L of caffeine (Sigma) or 2 mg/kg SCH58261 (1 mg/kg s.c. and 1 mg/kg i.p.) in DMSO (45% vol. in PBS) or 45% DMSO alone starting 1 day before EAE induction and continuing throughout the experiment. All procedures performed on mice were approved by the relevant animal review committee.
EAE was induced by subjecting mice to the myelin oligodendrocyte glycoprotein (“MOG”) EAE-inducing regimen as described in Swanborg, “Experimental Autoimmune Encephalomyelitis in Rodents as a Model for Human Demyelinating Disease,” Clin. Immunol. […] Briefly, a 1:1 emulsion of MOG35-55 peptide (3 mg/ml in PBS) (Invitrogen) and complete Freund's adjuvant (CFA, Sigma) was injected subcutaneously (50 μl) into each flank. Pertussis toxin (PTX, 20 ng) (Biological Laboratories Inc.) was given intravenously (200 μl in PBS) at the time of immunization and again 2 days later. Mice were scored daily for EAE based on disease symptom severity; 0=no disease, 0.5 -1=weak/limp tail, 2=limp tail and partial hind limb paralysis, 3=total hind limb paralysis, 4=both hind limb and fore limb paralysis, 5=death. Mice with a score of 4 were euthanized.
Wild type mice were given 1 mg/kg of SCH58261 in DMSO or DMSO alone both i.p. and s.c. (for a total of 2 mg/kg) 1 day prior to EAE induction and daily for 30 days throughout the course of the experiment (FIG. 7C).

Z310 cells = test: Jurkat cell migration across Z310 choroid plexus cell transwell; assay type: cell-based, murine; settings: Z310 cells on Transwell; migrated cells counted after 24 hours; n=1
Procedure: The choroid plexus (“CP”) controls lymphocyte migration into the CNS. The CP expresses the A1 and A2a adenosine receptors. EAE is prevented in mice when A2a adenosine receptor activity is blocked. EAE is enhanced when the A1 adenosine receptor is missing. It was hypothesized that A2a adenosine receptor activation promotes lymphocyte migration across the CP. Z310 cells are a murine choroid plexus cell line. To test the hypothesis, Transwell membranes were seeded with Z310 cells and allowed to grow to confluencey. 2×10^6 Jurkat cells were added to the upper chamber with or with out NECA (n=1, general AR agonist), CCPA (n=1, A1AR agonist), CGS 21680 (n=1, A2AAR agonist), or DMSO vehicle(n=1). After 24 hours, migrated cells in the lower chamber were counted. Values are relative to the number of cells that migrate through non-Z310 seeded transwells and the results are shown in FIG. 12.

hCMEC/D3 cells [1] = test: Jurkat cell migration across hCMEC/D3 transwell in vitro BBB; assay type: cell-based, human; settings: hCMEC/D3 on Transwell; migrated cells counted after 24 hours
Source text: The blood brain barrier (BBB) is comprised of endothelial cells. During late stages of EAE, lymphocytes are known to cross the BBB. In order to determine if adenosine receptor stimulation of brain endothelial cells could promote lymphocyte migration through the BBB, an in vitro BBB was established. The human brain endothelial cell line hCMEC/D3 (Weksler et al., “Blood-brain Barrier-specific Properties of a Human Adult Brain Endothelial Cell Line,” J. Neurochem. 19(13):1872-4 (2005); Poller et al., “The Human Brain Endothelial Cell Line hCMEC/D3 as a Human Blood-brain Barrier Model for Drug Transport Studies,” J. Neurochem. 107(5):1358-1368 (2008), which are hereby incorporated by reference in their entirety) was obtained, which has been previously described as having BBB properties.
hCMEC/D3 cells were seeded onto Transwell and allowed to grow to confluencey. 2×10^6 Jurkat cells were added to the upper chamber with or without NECA (general adenosine receptor [AR] agonist), CCPA (A1AR agonist), CGS 21680 (A2AAR agonist), or DMSO vehicle. After 24 hours, migrated cells in the lower chamber were counted. Values are relative to the number of cells that migrate through non-HCMECD3 seeded transwells.

hCMEC/D3 cells [2] = test: cAMP levels in hCMEC/D3 cells (cAMP Screen kit); assay type: cell-based, human; settings: 15 minutes treatment
Procedure: Adenosine receptor activation regulates cAMP levels in cells. In order to determine the sensitivity of human brain endothelial cells to adenosine receptor induced cAMP regulation, human brain endothelial cells were cultured with adenosine receptor agonists at various concentrations, followed by cAMP level analysis, as shown in FIG. 13.
HCMECD3 cells were grown to confluencey on 24 well plates. As adenosine receptor (“AR”) stimulation is known to influence cAMP levels, cells were treated with or without various concentrations of NECA (general AR agonist), CCPA (A1AR agonist), CGS 21680 (A2AAR agonist), DMSO vehicle, or Forksolin (induces cAMP). After 15 minutes, lysis buffer was added and the cells were frozen at −80 C to stop the reaction. Duplicate samples were used for each condition. cAMP levels were assayed using a cAMP Screen kit (Applied Biosystems, Foster City, Calif.).

## Cn1c(=O)c2c(ncn2C)n(C)c1=O [caffeine]
Blood brain barrier; CD73-/- mice fed 0.6 g/l caffeine in water for five days
  FITC-Dextran extravasation across the blood brain barrier (green color of brain sections): much less intense green color than wild type mice
Blood brain barrier; wild type mice fed 0.6 g/l caffeine in water for five days
  FITC-Dextran extravasation across the blood brain barrier (green color of brain sections): intensely green background
EAE-induced mice; cd73-/- mice, caffeine 0.6 g/L in drinking water from 1 day prior to and throughout the EAE experiment
  EAE development (mean EAE score): did not develop EAE
EAE-induced mice; wild type mice, caffeine 0.6 g/L in drinking water from 1 day prior to and throughout the EAE experiment
  EAE development (mean EAE score): dramatically protected against EAE development

## OC[C@H]1O[C@@H](n2cnc3c(NC4CCCC4)nc(Cl)nc32)[C@H](O)[C@@H]1O [CCPA]
Z310 cells
  lymphocyte (Jurkat) migration across the CP: induced lymphocyte migration at high levels
hCMEC/D3 cells [1]
  lymphocyte (Jurkat) migration across the in vitro BBB: induced lymphocyte migration at high levels
hCMEC/D3 cells [2]; high levels of the agonist
  cAMP levels: increased cAMP levels

## CCNC(=O)[C@H]1O[C@@H](n2cnc3c(N)nc(NCCc4ccc(CCC(=O)O)cc4)nc32)[C@H](O)[C@@H]1O [CGS]
Z310 cells
  lymphocyte (Jurkat) migration across the CP: promoted lymphocyte migration across the CP
hCMEC/D3 cells [1]
  lymphocyte (Jurkat) migration across the in vitro BBB: promoted lymphocyte migration across the in vitro BBB when used at a lower concentration
hCMEC/D3 cells [2]; various concentrations
  cAMP levels: slightly increased cAMP levels

B1: PEG-ADA: Pegylated adenosine deaminase (protein, UniProt P56658 2-363, looked up)
Adenosine deaminase: AQTPAFNKPKVELHVHLDGAIKPETILYYGRKRGIALPADTPEELQNIIGMDKPLSLPEFLAKFDYYMPAIAGCREAVKRIAYEFVEMKAKDGVVYVEVRYSPHLLANSKVEPIPWNQAEGDLTPDEVVSLVNQGLQEGERDFGVKVRSILCCMRHQPSWSSEVVELCKKYREQTVVAIDLAGDETIEGSSLFPGHVKAYAEAVKSGVHRTVHAGEVGSANVVKEAVDTLKTERLGHGYHTLEDATLYNRLRQENMHFEVCPWSSYLTGAWKPDTEHPVVRFKNDQVNYSLNTDDPLIFKSTLDTDYQMTKNEMGFTEEEFKRLNINAAKSSFLPEDEKKELLDLLYKAYGMPSPASAEQCL
modifications: PEG
notes: Pegylated adenosine deaminase
EAE-induced mice; wild type mice, 15 units/kg body weight i.p. every 4 days, vs PBS vehicle
  EAE development (mean EAE score): inhibits development of EAE in wild type mice
